Results from PubChem BioAssay AID330 (DTP/NCI, 2004).
Several values for one entry are separate records, joined by “and”; a condition that tells them apart may be missing. Equal entries are not always repeated. Inconclusive results and toxic doses are left out. How the source made its calls: active means survival T/C of 150% or more; inactive means T/C below 125% in these data.

Tested on: P388 leukemia ip, CD2F1 mice, survival T/C
Test: NCI In Vivo Anticancer Drug Screen. Data for tumor model P388 Leukemia (intraperitoneal) in CD2F1 (CDF1) mice
Settings: endpoint: median survival time, higher = longer survival
Method in brief: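 Mice carrying the transplanted tumor received test compound or vehicle. Survival was recorded in each group, and the value is the treated-group measurement divided by that of the vehicle-treated control group.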

[1] = dose: 60.0 mg/kg/injection, schedule: Q01DX005 (ip), vehicle: saline with Tween-80
[2] = dose: 120.0 mg/kg/injection, schedule: Q01DX005 (ip), vehicle: saline with Tween-80
[3] = dose: 240.0 mg/kg/injection, schedule: Q01DX005 (ip), vehicle: saline with Tween-80
[4] = dose: 50.0 mg/kg/injection, schedule: Q01DX005 (ip), vehicle: saline with Tween-80
[5] = dose: 100.0 mg/kg/injection, schedule: Q01DX005 (ip), vehicle: saline with Tween-80
[6] = dose: 200.0 mg/kg/injection, schedule: Q01DX005 (ip), vehicle: saline with Tween-80
[7] = dose: 50.0 mg/kg/injection, schedule: Q01DX005 (ip), vehicle: Klucel (hydroxypropylcellulose) (HPC)
[8] = dose: 100.0 mg/kg/injection, schedule: Q01DX005 (ip), vehicle: Klucel (hydroxypropylcellulose) (HPC)
[9] = dose: 200.0 mg/kg/injection, schedule: Q01DX005 (ip), vehicle: Klucel (hydroxypropylcellulose) (HPC)
[10] = dose: 50.0 mg/kg/injection, schedule: Q01DX009 (ip), vehicle: saline with Tween-80
[11] = dose: 100.0 mg/kg/injection, schedule: Q01DX009 (ip), vehicle: saline with Tween-80
[12] = dose: 25.0 mg/kg/injection, schedule: Q04DX003 (ip), vehicle: Klucel (hydroxypropylcellulose) (HPC)
[13] = dose: 50.0 mg/kg/injection, schedule: Q04DX003 (ip), vehicle: Klucel (hydroxypropylcellulose) (HPC)
[14] = dose: 100.0 mg/kg/injection, schedule: Q04DX003 (ip), vehicle: Klucel (hydroxypropylcellulose) (HPC)
[15] = dose: 12.5 mg/kg/injection, schedule: Q04DX003 (ip), vehicle: Klucel (hydroxypropylcellulose) (HPC)
[16] = dose: 200.0 mg/kg/injection, schedule: Q04DX003 (ip), vehicle: Klucel (hydroxypropylcellulose) (HPC)
[17] = dose: 200.0 mg/kg/injection, schedule: Q01DX009 (ip), vehicle: saline with Tween-80

Measured: T/C

O=C1NC2C=CN(Cc3ccccc3)C=C2C(=O)N2CCCC12 (stereo not drawn)
inactive: [1] 101 % of control | [2] 101 % of control | [3] 97 % of control

O=c1cc(-c2ccccc2)c(N=Nc2ccccc2)c(S)n1-c1ccccc1
inactive: [4] 87 % of control | [5] 88 % of control | [6] 90 % of control

C=C(C)C(=NC(C)C)Nc1ccccc1Cl
inactive: [7] 92 % of control and 108 % of control | [8] 92 % of control and 107 % of control | [9] 98 % of control

Cc1noc(NS(=O)(=O)c2ccc(N=Nc3cc(N=Nc4ccc(S(=O)(=O)Nc5onc(C)c5C)cc4)c4c(NC(=O)C(Cl)Cl)cccc4c3OC(=O)C(Cl)Cl)cc2)c1C (tested in a mixture with another compound)
inactive: [10] 100 % of control and 106 % of control | [11] 104 % of control and 106 % of control

O=C(CC(O)c1ccccc1)Sc1ccccc1 (stereo not drawn)
inactive: [12] 100 % of control | [13] 100 % of control | [14] 95 % of control

Cc1c(Cl)c(C)c(Cl)c(CCl)c1Cl
inactive: dose: 18.75 mg/kg/injection, schedule: Q04DX003 (ip), vehicle: saline sonified 95 % of control | dose: 37.5 mg/kg/injection, schedule: Q04DX003 (ip), vehicle: saline sonified 109 % of control | dose: 75.0 mg/kg/injection, schedule: Q04DX003 (ip), vehicle: saline sonified 109 % of control

CC(=O)N(C)C(C(=O)N1CC(C)CC1C(=O)N(C)C1C(=O)NC(CC(C)C)C(=O)N2CC(C)CC2C(=O)NC(CC(C)C)C(=O)N(C)C(C(C)C)C(=O)N2CCCC2C(=O)N(C)C(CC(C)C)C(=O)NCC(=O)OC1C)C(C)C (stereo not drawn)
inactive: dose: 3.12 mg/kg/injection, schedule: Q01DX009 (ip), vehicle: Klucel (hydroxypropylcellulose) (HPC) 103 % of control | dose: 6.25 mg/kg/injection, schedule: Q01DX009 (ip), vehicle: Klucel (hydroxypropylcellulose) (HPC) 97 % of control | dose: 12.5 mg/kg/injection, schedule: Q01DX009 (ip), vehicle: Klucel (hydroxypropylcellulose) (HPC) 100 % of control | dose: 18.75 mg/kg/injection, schedule: Q01DX009 (ip), vehicle: Klucel (hydroxypropylcellulose) (HPC) 93 % of control | dose: 25.0 mg/kg/injection, schedule: Q01DX009 (ip), vehicle: Klucel (hydroxypropylcellulose) (HPC) 93 % of control

O=C(O)CCSCCCCCCCCCCCCSCCC(=O)O
inactive: [7] 95 % of control | [8] 89 % of control | [9] 87 % of control

N=C(N)c1nn[nH]n1
inactive: [15] 100 % of control | [12] 100 % of control | [13] 97 % of control | [14] 103 % of control | [16] 100 % of control

CCOC(=O)CCCCCNc1nc(Cl)nc(Cl)n1
inactive: [10] 98 % of control | [11] 103 % of control | [17] 87 % of control

COc1ccc(OC)c(NC(=O)CCCC(=O)C(C#N)c2nc3ccccc3s2)c1 (stereo not drawn)
inactive: [1] 105 % of control | [2] 108 % of control | [3] 100 % of control

N#CC(=C1C=CC(=NO)C=C1)c1ccccc1
inactive: [17] 115 % of control

CCOC(=O)c1ccc(-n2c(C)nc3cc(Cl)ccc3c2=O)cc1
inactive: [10] 104 % of control | [11] 98 % of control | [17] 98 % of control

CC1=CCCN(C)C1c1ccccc1 (stereo not drawn)
inactive: dose: 50.0 mg/kg/injection, schedule: Q01DX005 (ip), vehicle: saline 99 % of control | dose: 100.0 mg/kg/injection, schedule: Q01DX005 (ip), vehicle: saline 99 % of control

CC1=CC(=O)N2CC(=O)N(C)c3ccc(Cl)cc3C2(c2ccccc2)O1 (stereo not drawn)
inactive: [7] 104 % of control | [8] 92 % of control | [9] 92 % of control

CC(=O)n1c(N)nc2ccccc21
inactive: dose: 50.0 mg/kg/injection, schedule: Q01DX009 (ip), vehicle: saline 104 % of control | dose: 100.0 mg/kg/injection, schedule: Q01DX009 (ip), vehicle: saline 104 % of control | dose: 200.0 mg/kg/injection, schedule: Q01DX009 (ip), vehicle: saline 90 % of control

C=Cc1c(C#N)nc(C)c(C)c1-c1ccc(OC)c(OC)c1OCc1ccccc1
inactive: [7] 101 % of control | [8] 95 % of control | [9] 108 % of control

C[C@]12CC[C@@H]3c4ccc(OCCO)c([N+](=O)[O-])c4CC[C@H]3[C@@H]1CCC2=O
inactive: [4] 104 % of control | [5] 104 % of control | [6] 97 % of control

COC(=O)n1oc2ccccc2c1=O
inactive: dose: 100.0 mg/kg/injection, schedule: Q04DX002 (ip), vehicle: Klucel (hydroxypropylcellulose) (HPC) 99 % of control | dose: 200.0 mg/kg/injection, schedule: Q04DX002 (ip), vehicle: Klucel (hydroxypropylcellulose) (HPC) 101 % of control | dose: 400.0 mg/kg/injection, schedule: Q04DX002 (ip), vehicle: Klucel (hydroxypropylcellulose) (HPC) 101 % of control

CCCCCCCCCCCCCCCCN(O)C(=O)c1cnc[nH]1
inactive: [14] 99 % of control | [16] 101 % of control | dose: 400.0 mg/kg/injection, schedule: Q04DX003 (ip), vehicle: Klucel (hydroxypropylcellulose) (HPC) 97 % of control

CC(=O)Oc1c(C)c(OC(C)=O)c2[nH]c(Cl)c(C=O)c2c1OC(C)=O
inactive: dose: 100.0 mg/kg/injection, schedule: Q01DX001 (ip), vehicle: Klucel (hydroxypropylcellulose) (HPC) 108 % of control | dose: 200.0 mg/kg/injection, schedule: Q01DX001 (ip), vehicle: Klucel (hydroxypropylcellulose) (HPC) 102 % of control

COc1ccc(Br)c(C(=O)Sc2nnnn2-c2cccc(Cl)c2)c1
inactive: [10] 111 % of control | [11] 116 % of control | [17] 115 % of control

CC(=O)Nc1ccn(C2OC(COC(C)=O)C(OC(C)=O)C2OC(C)=O)c(=O)n1 (stereo not drawn)
active: dose: 250.0 mg/kg/injection, schedule: Q01DX009 (ip), vehicle: Klucel (hydroxypropylcellulose) (HPC) 157 % of control | dose: 500.0 mg/kg/injection, schedule: Q01DX009 (ip), vehicle: Klucel (hydroxypropylcellulose) (HPC) 155 % of control | dose: 1000.0 mg/kg/injection, schedule: Q01DX009 (ip), vehicle: Klucel (hydroxypropylcellulose) (HPC) 174 % of control
inactive: dose: 62.5 mg/kg/injection, schedule: Q01DX009 (ip), vehicle: Klucel (hydroxypropylcellulose) (HPC) 102 % of control | dose: 125.0 mg/kg/injection, schedule: Q01DX009 (ip), vehicle: Klucel (hydroxypropylcellulose) (HPC) 119 % of control

O=C(c1ccccc1)C1(c2ccccc2)CCN(Cc2ccccc2)CC1
inactive: dose: 100.0 mg/kg/injection, schedule: Q04DX002 (ip), vehicle: saline with Tween-80 93 % of control | dose: 200.0 mg/kg/injection, schedule: Q04DX002 (ip), vehicle: saline with Tween-80 86 % of control | dose: 400.0 mg/kg/injection, schedule: Q04DX002 (ip), vehicle: saline with Tween-80 94 % of control

N=C(N)S(=O)(=O)c1ccccc1
inactive: [15] 102 % of control and 106 % of control | [12] 106 % of control and 108 % of control (2×) | [13] 102 % of control and 107 % of control and 121 % of control | [14] 112 % of control | [16] 118 % of control

O=C1CCC(C(=O)O)C(C(=O)O)C1 (stereo not drawn)
inactive: dose: 50.0 mg/kg/injection, schedule: Q01DX001 (ip), vehicle: saline 107 % of control | dose: 100.0 mg/kg/injection, schedule: Q01DX001 (ip), vehicle: saline 100 % of control | dose: 200.0 mg/kg/injection, schedule: Q01DX001 (ip), vehicle: saline 101 % of control | dose: 400.0 mg/kg/injection, schedule: Q01DX001 (ip), vehicle: saline 107 % of control

CCOC(=O)NC
inactive: dose: 100.0 mg/kg/injection, schedule: Q04DX003 (ip), vehicle: saline 104 % of control | dose: 200.0 mg/kg/injection, schedule: Q04DX003 (ip), vehicle: saline 100 % of control | dose: 400.0 mg/kg/injection, schedule: Q04DX003 (ip), vehicle: saline 104 % of control

CN(C)CCN(Cc1ccccc1)c1ccc2ccccc2n1
inactive: dose: 6.25 mg/kg/injection, schedule: Q01DX005 (ip), vehicle: Klucel (hydroxypropylcellulose) (HPC) 97 % of control | dose: 12.5 mg/kg/injection, schedule: Q01DX005 (ip), vehicle: Klucel (hydroxypropylcellulose) (HPC) 97 % of control | dose: 25.0 mg/kg/injection, schedule: Q01DX005 (ip), vehicle: Klucel (hydroxypropylcellulose) (HPC) 99 % of control
